The assay has as its target T1, Angiotensin II Receptor (Bos taurus, UniProt P25104).
T1 construct: The brownish tissue forming the adrenal cortex is scraped off and finely minced with scissors before homogenization; from tissue; host or cells: beef adrenal cortex, microsomal membranes (100,000 x g pellet)
T1 sequence (P25104 1-359): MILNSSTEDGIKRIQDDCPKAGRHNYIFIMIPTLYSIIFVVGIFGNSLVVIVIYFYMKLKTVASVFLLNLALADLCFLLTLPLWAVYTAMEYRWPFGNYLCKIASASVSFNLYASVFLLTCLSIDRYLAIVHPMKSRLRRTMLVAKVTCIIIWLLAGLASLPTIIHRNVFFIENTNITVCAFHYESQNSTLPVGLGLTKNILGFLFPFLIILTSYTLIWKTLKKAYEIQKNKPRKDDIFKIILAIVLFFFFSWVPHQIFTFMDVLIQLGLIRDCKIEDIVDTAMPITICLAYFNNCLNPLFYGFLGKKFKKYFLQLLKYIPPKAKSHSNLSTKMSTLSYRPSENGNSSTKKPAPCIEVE
In words: Receptor binding assay: binding of [^125 I](Sar^1,Ile^8)AngII. The conditions noted are these: beef adrenal cortex membranes, 60 min, room temperature. From the text: Beef adrenals are obtained from a local slaughter house (Maxwell-Cohen). [^125 I](Sar^1,Ile^8)AngII, S. A. 2200 Ci/mmole, is purchased from Dupont (NEN®, Boston, Mass.). All unlabeled AngII analogs, Dimethylsulfoxide (DMSO), nucleotides, bovine serum albumin (BSA) are purchased from Sigma Chemical Co., St. Louis, Mo. U.S.A.
Approximately sixteen (16) to twenty (20) beef adrenal glands are processed as follows: fresh adrenal glands received on crushed ice are cleaned of fatty tissues and the tough membranes encapsulating the glands are removed and discarded. […] A 100 ul aliquot is withdrawn and the protein content of the preparation is determined by the Lowry's method (Lowry, O. H., Rosebrough, N. P., Farr, A. L. and Randall, R. J., Protein measurement with Polin phenol reagent. J. Biol. Chem., […], 265-275, 1951). […]
The binding of [^125 I](Sar^1 Ile^8)AngII to microsomal membranes is initiated by the addition of reconstituted membranes (1:10 vols.) in freshly made 50.0 mM Tris.HCl buffer, pH 7.4 containing 0.25% heat inactivated bovine serum albumin (BSA): 80 ul membrane protein (10 to 20 ug/assay) to wells already containing 100 ul of incubation buffer (as described above) and 20 ul [^125 I](Sar^1 Ile^8)AngII (Specific Activity, 2200 Ci/mmole). Non-specific binding is measured in the presence of 1.0 uM unlabeled (Sar^1,Ile^8)AngII, added in 20 ul volume. […]

The source of these data is patent US5292734A, “Angiotensin II receptor blocking 2,3,6 substituted quinazolinones” (American Cyanamid Company, priority 1993, dated 1994).

Regarding `CCCCc1nc2ccc(C(O)CC3CCCN3)cc2c(=O)n1Cc1ccc(-c2ccccc2-c2nnn[nH]2)cc1` (racemic) [Example 80, CIS-(+/-)-2-Butyl-6-[1-hydroxy-2-(2-pyrrolidinyl)ethyl]-3-[[2'-(1H-tetrazol-5-yl)[1,1'-biphenyl]-4-yl]methyl] -4(3H)-quinazolinone], the 50% inhibitory concentration (IC50) turned out to be 41 nM.

What is called IC50 is the concentration that inhibits the measured activity by half. Higher therefore signals weaker potency in that assay.
